# Test results from the supplement of paper PMC8671470.
# ± gives the standard deviation of the averaged measurements.
# Test system: HL-60
# Assay: cell viability (% survival relative to DMSO control); higher = less cytotoxic
# Details: 0.001 µM; 72 h; co-treatment: GSK2194069 100 nM
# Outline: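 In 384-well plates, the full library was rescreened in duplicate on HL-60 cells in RPMI 1640 with 10% FBS, at 1–10,000 nM in five tenfold concentrations, for 72 h at 37 °C, 5% CO2. Each run also held DMSO or 100 nM of one of three metabolic inhibitors. Viability was measured by CellTiter-Glo and normalised to DMSO wells and to wells with proteasome inhibitor, present at 10 μM. Any area under the curve comes from four-parameter log-logistic fitting with drc and PharmacoGx.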
row,SMILES,cell viability
1,Cc1nnc(-c2ccc(N3CCC(Oc4ccccc4C(F)(F)F)CC3)nn2)s1 [MF-438],92.9 ± 23%
2,CC(C)c1ccc2c(c1)c(SC(C)(C)C)c(CC(C)(C)C(=O)O)n2Cc1ccc(Cl)cc1 [MK-886],104 ± 2.2%
3,O=C(CCl)N(CCCNC(=O)C(F)(F)F)c1ccc([N+](=O)[O-])cc1 [ML175],100 ± 1.6%
4,CN(C)C(=N)NC(=N)N [Metformin],98.7 ± 11%
5,Cl.OC[C@H]1NC[C@H](O)[C@@H](O)[C@H]1O [Migalastat],106 ± 1.1%
6,OCCN1C[C@H](O)[C@@H](O)[C@H](O)[C@H]1CO [Miglitol],99.52 ± 0.9%
7,"CCCCCCCCCCCCC/C=C/[C@@H](O)[C@H](CO)N(C)C [N,N-Dimethylsphingosine]",90.2 ± 1.8%
8,CCCCCCCNC=O [N-Heptyl-Formamide],99.7 ± 2.1%

# Same assay, conditions: 0.001 µM; 72 h; co-treatment: pictilisib 100 nM
row,SMILES,cell viability
1,O=C(Oc1ccc([N+](=O)[O-])cc1)N1CCC(C(O)(c2ccc3c(c2)OCO3)c2ccc3c(c2)OCO3)CC1 [JZL184],83.1 ± 35%
2,O=C1N[C@@H]2[C@@H](O)[C@@H](O)[C@H](O)[C@@H](CO)N2C1=O [Kifunensine],85.7 ± 3.2%
3,CC(C)(CCCCCCCCCCC(C)(C)CC(=O)O)CC(=O)O [MEDICA 16],97.8 ± 6.5%
4,Cc1nnc(-c2ccc(N3CCC(Oc4ccccc4C(F)(F)F)CC3)nn2)s1 [MF-438],109 ± 2.6%
5,CC(C)c1ccc2c(c1)c(SC(C)(C)C)c(CC(C)(C)C(=O)O)n2Cc1ccc(Cl)cc1 [MK-886],105 ± 12%
6,O=C(CCl)N(CCCNC(=O)C(F)(F)F)c1ccc([N+](=O)[O-])cc1 [ML175],101 ± 6.9%
7,CN(C)C(=N)NC(=N)N [Metformin],92 ± 24%
8,Cl.OC[C@H]1NC[C@H](O)[C@@H](O)[C@H]1O [Migalastat],102 ± 4.4%
9,OCCN1C[C@H](O)[C@@H](O)[C@H](O)[C@H]1CO [Miglitol],97.8 ± 6.1%
10,"CCCCCCCCCCCCC/C=C/[C@@H](O)[C@H](CO)N(C)C [N,N-Dimethylsphingosine]",87.6 ± 2.9%
11,CCCCCCCNC=O [N-Heptyl-Formamide],99.8 ± 14%

# Same assay, conditions: 0.01 µM; 72 h; co-treatment: AZD3965 100 nM
row,SMILES,cell viability
1,O=C(Oc1ccc([N+](=O)[O-])cc1)N1CCC(C(O)(c2ccc3c(c2)OCO3)c2ccc3c(c2)OCO3)CC1 [JZL184],92.8 ± 12%
2,O=C1N[C@@H]2[C@@H](O)[C@@H](O)[C@H](O)[C@@H](CO)N2C1=O [Kifunensine],81.8 ± 28%
3,CC(C)(CCCCCCCCCCC(C)(C)CC(=O)O)CC(=O)O [MEDICA 16],104 ± 9.4%
4,Cc1nnc(-c2ccc(N3CCC(Oc4ccccc4C(F)(F)F)CC3)nn2)s1 [MF-438],99.9 ± 1.6%
5,CC(C)c1ccc2c(c1)c(SC(C)(C)C)c(CC(C)(C)C(=O)O)n2Cc1ccc(Cl)cc1 [MK-886],95.8 ± 12%
6,O=C(CCl)N(CCCNC(=O)C(F)(F)F)c1ccc([N+](=O)[O-])cc1 [ML175],100 ± 1.6%
7,CN(C)C(=N)NC(=N)N [Metformin],99 ± 5.4%
8,Cl.OC[C@H]1NC[C@H](O)[C@@H](O)[C@H]1O [Migalastat],108 ± 2.8%
9,OCCN1C[C@H](O)[C@@H](O)[C@H](O)[C@H]1CO [Miglitol],103.6 ± 0.14%
10,"CCCCCCCCCCCCC/C=C/[C@@H](O)[C@H](CO)N(C)C [N,N-Dimethylsphingosine]",103 ± 7.5%
11,CCCCCCCNC=O [N-Heptyl-Formamide],106 ± 12%

# Same assay, conditions: 0.01 µM; 72 h; co-treatment: DMSO vehicle
row,SMILES,cell viability
1,O=C(Oc1ccc([N+](=O)[O-])cc1)N1CCC(C(O)(c2ccc3c(c2)OCO3)c2ccc3c(c2)OCO3)CC1 [JZL184],93.8 ± 6%
2,O=C1N[C@@H]2[C@@H](O)[C@@H](O)[C@H](O)[C@@H](CO)N2C1=O [Kifunensine],99.24 ± 0.24%
3,CC(C)(CCCCCCCCCCC(C)(C)CC(=O)O)CC(=O)O [MEDICA 16],98.3 ± 3.4%
4,Cc1nnc(-c2ccc(N3CCC(Oc4ccccc4C(F)(F)F)CC3)nn2)s1 [MF-438],101.6 ± 0.88%
5,CC(C)c1ccc2c(c1)c(SC(C)(C)C)c(CC(C)(C)C(=O)O)n2Cc1ccc(Cl)cc1 [MK-886],99.9 ± 1.5%
6,O=C(CCl)N(CCCNC(=O)C(F)(F)F)c1ccc([N+](=O)[O-])cc1 [ML175],103 ± 1.5%
7,CN(C)C(=N)NC(=N)N [Metformin],95.8 ± 5.8%
8,Cl.OC[C@H]1NC[C@H](O)[C@@H](O)[C@H]1O [Migalastat],103 ± 8.1%
9,OCCN1C[C@H](O)[C@@H](O)[C@H](O)[C@H]1CO [Miglitol],101 ± 2.5%
10,"CCCCCCCCCCCCC/C=C/[C@@H](O)[C@H](CO)N(C)C [N,N-Dimethylsphingosine]",98.5 ± 4%
11,CCCCCCCNC=O [N-Heptyl-Formamide],78.3 ± 35%

# Same assay, conditions: 0.01 µM; 72 h; co-treatment: GSK2194069 100 nM
row,SMILES,cell viability
1,O=C(Oc1ccc([N+](=O)[O-])cc1)N1CCC(C(O)(c2ccc3c(c2)OCO3)c2ccc3c(c2)OCO3)CC1 [JZL184],99.6 ± 1%
2,O=C1N[C@@H]2[C@@H](O)[C@@H](O)[C@H](O)[C@@H](CO)N2C1=O [Kifunensine],79.8 ± 27%
3,CC(C)(CCCCCCCCCCC(C)(C)CC(=O)O)CC(=O)O [MEDICA 16],87.2 ± 19%
4,Cc1nnc(-c2ccc(N3CCC(Oc4ccccc4C(F)(F)F)CC3)nn2)s1 [MF-438],104 ± 5.6%
5,CC(C)c1ccc2c(c1)c(SC(C)(C)C)c(CC(C)(C)C(=O)O)n2Cc1ccc(Cl)cc1 [MK-886],98.8 ± 5.2%
6,O=C(CCl)N(CCCNC(=O)C(F)(F)F)c1ccc([N+](=O)[O-])cc1 [ML175],92.97 ± 0.7%
7,CN(C)C(=N)NC(=N)N [Metformin],98 ± 11%
8,Cl.OC[C@H]1NC[C@H](O)[C@@H](O)[C@H]1O [Migalastat],110 ± 3.4%
9,OCCN1C[C@H](O)[C@@H](O)[C@H](O)[C@H]1CO [Miglitol],109 ± 3%
10,"CCCCCCCCCCCCC/C=C/[C@@H](O)[C@H](CO)N(C)C [N,N-Dimethylsphingosine]",98.3 ± 5.2%
11,CCCCCCCNC=O [N-Heptyl-Formamide],103 ± 2.5%

# Same assay, conditions: 0.01 µM; 72 h; co-treatment: pictilisib 100 nM
row,SMILES,cell viability
1,O=C(Oc1ccc([N+](=O)[O-])cc1)N1CCC(C(O)(c2ccc3c(c2)OCO3)c2ccc3c(c2)OCO3)CC1 [JZL184],89.4 ± 14%
2,O=C1N[C@@H]2[C@@H](O)[C@@H](O)[C@H](O)[C@@H](CO)N2C1=O [Kifunensine],112 ± 7.8%
3,CC(C)(CCCCCCCCCCC(C)(C)CC(=O)O)CC(=O)O [MEDICA 16],100 ± 6.5%
4,Cc1nnc(-c2ccc(N3CCC(Oc4ccccc4C(F)(F)F)CC3)nn2)s1 [MF-438],106 ± 2.9%
5,CC(C)c1ccc2c(c1)c(SC(C)(C)C)c(CC(C)(C)C(=O)O)n2Cc1ccc(Cl)cc1 [MK-886],98.1 ± 1.9%
6,O=C(CCl)N(CCCNC(=O)C(F)(F)F)c1ccc([N+](=O)[O-])cc1 [ML175],94.4 ± 3.7%
7,CN(C)C(=N)NC(=N)N [Metformin],111 ± 21%
8,Cl.OC[C@H]1NC[C@H](O)[C@@H](O)[C@H]1O [Migalastat],112 ± 3.5%
9,OCCN1C[C@H](O)[C@@H](O)[C@H](O)[C@H]1CO [Miglitol],104 ± 3.2%
10,"CCCCCCCCCCCCC/C=C/[C@@H](O)[C@H](CO)N(C)C [N,N-Dimethylsphingosine]",112 ± 13%
11,CCCCCCCNC=O [N-Heptyl-Formamide],108 ± 15%

# Same assay, conditions: 0.1 µM; 72 h; co-treatment: AZD3965 100 nM
row,SMILES,cell viability
1,O=C(Oc1ccc([N+](=O)[O-])cc1)N1CCC(C(O)(c2ccc3c(c2)OCO3)c2ccc3c(c2)OCO3)CC1 [JZL184],104 ± 2.5%
2,O=C1N[C@@H]2[C@@H](O)[C@@H](O)[C@H](O)[C@@H](CO)N2C1=O [Kifunensine],101 ± 2.2%
